Reference: patent US9339486B2, “Heterocyclic modulators of cannabinoid receptors” (THE CLEVELAND CLINIC FOUNDATION, priority 2008, dated 2016)

What was measured:
nerve-ligation model = assay: Assessment of mechanical allodynia in rats, L5/6 spinal-nerve ligation, von Frey (IP or IT); format: in vivo, rat
Protocol: All experiments were performed on male Sprague-Dawley rats (200-250 g). Rats were housed individually in plastic cages with soft bedding at room temperature and maintained on a 12-hour light-dark cycle with free access to food and water.
Neuropathic pain was induced following the methods of Kim and Chung. Kim S H, Chung J M. An experimental model for peripheral neuropathy produced by segmental spinal nerve ligation in the rat. Pain 1992; 50:355-63. Rats were anesthetized and placed prone under a microsurgical apparatus. A midline incision was made on the back, and the right paraspinal muscles were separated from the spinous processes at the L4-S2 levels. The L6 transverse process was carefully removed, and the L4/5 spinal nerves were identified. The L5 nerve was tightly ligated with a 6-0 silk suture. The right L6 spinal nerve was then located just caudal and medial to the sacroiliac junction and tightly ligated with a silk suture.
Two weeks later after spinal nerve ligation, Intrathecal catheters (PE-10 tubing) was inserted into the rats while they were anesthetized with isoflurane, as described by Yaksh and Rudy. Yaksh T L, Rudy T A. Chronic catheterization of the spinal subarachnoid space. Physiology & Behavior 1976; 17:1031-6. A midline incision was made on the back of the neck. The muscle was freed at the attachment to the skull exposing the cisternal membrane. The membrane was opened with a stab blade and an 8.5 cm polyethylene (PE-10) catheter was then inserted through the cisternal opening, and passed carefully and caudally into the intrathecal space at the L1-L3 spinal segments. The end of the catheter was tunneled through the subcutaneous space over the frontal bones, flushed with 10 μl saline, and then plugged with a short length of wire. Animal testing was performed 5-7 days after intrathecal catheter placement.
To assess mechanical allodynia, the mechanical paw withdrawal threshold was measured with a series of von Frey hairs (range 0.4-15 g). Rats were placed in elevated Perspex enclosures (28 cm×15 cm×18 cm) with wire mesh bases and given 15-20 min to acclimatize to the testing environment. Rats will be allowed to acclimatize for 30 min in a clear plastic cage with a wire mesh bottom. The calibrated von Frey filament fibers were applied to the hindpaw briefly for 6 seconds to determine the paw withdrawal threshold before and after drug injection (intraperitoneally or intrathecally). A series of von Frey filaments with exponentially incremental stiffness (0.4, 0.7, 1.2, 2.0, 3.6, 5.5, 8.5 and 15 g) were used to measure the 50% threshold for hindpaw withdrawal in awake, unrestrained rats. Chaplan S R, Bach F W, Pogrel J W, Chung J M, Yaksh T L. Quantitative assessment of tactile allodynia in the rat paw. Journal of Neuroscience Methods 1994; 53:55-63. Brisk paw withdrawal from the pressure of a filament gently bent against the plantar paw was defined as a positive response, and absence of withdrawal within 6 s as a negative response. Filaments were touched to the hindpaw in sequential ascending or descending order until the threshold of response is crossed (allowing about 10 s between each increment of the von Frey filaments). Each time the threshold is crossed, the direction of stimulus presentation was reversed and the procedure will be resumed. Four responses were collected after the first threshold detection, and the 50% withdrawal thresholds were interpolated. In cases where response thresholds fell outside the range of detection, 15.00 and 0.25 g were, respectively, assigned for continuous negative or positive responses to the limit of stimuli.
The compound of Example 3 was prepared in dimethyl sulfoxide (DMSO).

CB1 = CB1 (Homo sapiens (Human), UniProt P21554); assay: Radioligand competition binding, CHO-K1 membranes, [3H]SR141716A
Protocol: Mukherjee, S., et al., Species Comparison and Pharmacological Characterization of Rat and Human CB2 Cannabinoid Receptors, Eur J Pharmacol, 2004, 505:1-9. The competition binding experiment was performed in 96 well plates (Masterblock®, Catalogue number 786201, Greiner Bio-One) containing binding buffer (50 mM Tris pH 7.4, 2.5 mM EDTA, 0.5% protease free BSA, saponine 10 μg/ml), recombinant membrane extracts (2 μg protein/well) and 1 nM [^3H] SR141716A (GE Healthcare, TRK1028, 42 Ci/mmol, diluted in binding buffer). […] The sample is incubated in a final volume of 0.1 ml for 60 min at 25° C. and then filtered on GF/C Unifilter microplate (Perkin Elmer, Catalogue number 6005177) presoaked in 0.05% Brij for 2 hrs at room temperature. Filters are washed six times with 4 ml of cold binding buffer and bound [^3H] SR141716A is determined by liquid scintillation counting. IC50 were determined by non-linear regression using one site competition equation. The inhibition constants (Ki) were calculated using the Cheng Prusoff equation (Ki=IC50/(1+(L/KD)), where L=concentration of radioligand in the assay, and KD=affinity of the radioligand for the receptor).

rCB2 receptors = rCB2 receptors (Rattus norvegicus (Rat), UniProt Q9QZN9); assay: cAMP activation assay rCB2; format: cell-based; settings: read-out: Agonist EC50 (mean ± s.e. mean) cAMP activation assays rCB2
Protocol: The compound of Example 3 was tested for agonist activity at the rat CB1 (rCB1) and rCB2 receptors, at eight concentrations, in duplicate: 10, 3, 1, 0.3, 0.1, 0.03, 0.01 and 0.001 μM. Recombinant cells grown to mid-log phase in culture media without antibiotics were detached with PBS containing 5 mM EDTA, centrifuged and resuspended in assay buffer at a concentration of 16.6×10^5 cells/ml. The test was performed in 96 well plates. For testing, 12 μl of cells ([…]) were mixed with 12 μl of agonist at increasing concentrations. […] The plates were then incubated for 30 min at room temperature. After addition of the lysis buffer, cAMP concentrations were estimated, according to the manufacturer specification, with the HTRF kit from Cis-Bio International (Catalogue number 62AM2PEB).

CC1(Cc2ccccc2)COc2cc(C(=O)N3CCCCC3)ccc21 (stereo not shown) [Example 3, 3-benzyl-3-methyl-2,3-dihydrobenzofuran-6-carboxylic acid-piperidine amide]
mechanical paw withdrawal threshold maintained (nerve-ligation model; IP 30 mg/kg): 15 g | time of peak effect following IP administration (nerve-ligation model; IP 30 mg/kg): ≤ 5 min | effect on mechanical paw withdrawal threshold (nerve-ligation model; IP 30 mg/kg in 0.5 ml): increase in mechanical paw withdrawal threshold | duration of high threshold (nerve-ligation model; IP 30 mg/kg, 2-h observation period): > 2 h | behavioral abnormalities or side effects (nerve-ligation model; IT administration): No behavioral abnormalities or side effects were noted | effect on mechanical paw withdrawal threshold (nerve-ligation model; IT administration): increase in mechanical paw withdrawal threshold | duration of increase in mechanical paw withdrawal threshold (nerve-ligation model; IT administration, 90-min observation period): ≥ 90 min | Ki (CB1; CHO-K1 membranes, 1 nM [3H]SR141716A, read-out: Mean Ki (nM) hCB1): > 10000 nM | radioactive ligand displacement at hCB1 receptors (CB1; up to 10 μM): did not demonstrate detectable radioactive ligand displacement | EC50 (rCB2 receptors): 21.7 ± 7.9 nM
